Source: US10457707B2, “Substituted urea depsipeptide analogs as activators of the CLPP endopeptidase” (priority 2015, dated 2019)
Read-outs that look alike come from different tables or passages of the source. *1 amine or outer side, *2 acyl side, *3 side chain or, on linkers, in order; H or OH if unused. Where a SMILES comes first, the peptide text is derived from it. Bridges are numbered along the chain shown (N, C = ends). [ ]: non-standard residue; d: D form. The star is where a group is joined. ξ: configuration not given here. Phe(3,5-F2) = N[C@@H](Cc1cc(F)cc(F)c1)C(=O)O; NH(4-OCF3-phenyl) = FC(F)(F)Oc1ccc(N*)cc1; Pro(4S-Me) = C[C@@H]1CN[C@H](C(=O)O)C1; NH(4-Cl-2-F-phenyl) = Fc1cc(Cl)ccc1N*; Pro(4R-Me) = C[C@H]1CN[C@H](C(=O)O)C1; NMeaThr = CN[C@H](C(=O)O)[C@H](C)O; ξNMeThr = CNC(C(=O)O)[C@@H](C)O; aThr = C[C@H](O)[C@H](N)C(=O)O; Pip = O=C(O)[C@@H]1CCCCN1; X8 = c1cc2c(cc1N*)CCO2; CO = O=C([*:1])[*:2]

Biological target: T1, Sa-ClpP (Staphylococcus aureus, UniProt Q2G036)
T1 construct: made in house; host or cells: E. coli BL21(DE3)
T1 sequence (Q2G036 1-195): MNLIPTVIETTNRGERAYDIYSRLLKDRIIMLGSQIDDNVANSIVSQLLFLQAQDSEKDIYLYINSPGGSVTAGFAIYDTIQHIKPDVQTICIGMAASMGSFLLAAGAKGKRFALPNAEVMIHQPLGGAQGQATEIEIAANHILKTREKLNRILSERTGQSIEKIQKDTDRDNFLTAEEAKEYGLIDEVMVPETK
Assay: Sa-ClpP casein-BODIPY ClpP activation assay, method variant not marked in Table 5
Format: biochemical, S. aureus
Procedure, shortened: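 Purified S. aureus ClpP (10 μM) incubated with 25 μg/ml BODIPY FL casein and compound (0-1000 μM) in pH 8 Tris/KCl/TCEP at 37° C. Fluorescence (485/528 nm) read every 5 min over 45 min; reaction velocities fitted to dose-response for EC50 (50% activation), triplicate.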

[1] = values without ** or † mark, assay variant not stated, read-out: ClpP Activation EC50

SMILES | EC50 | EC50 [1]
C[C@@H]1C[C@H]2C(=O)O[C@@H](C)[C@H](NC(=O)[C@H](Cc3cc(F)cc(F)c3)NC(=O)Nc3ccc(Cl)cc3F)C(=O)N3CCC[C@H]3C(=O)N(C)C([C@@H](C)O)C(=O)N[C@@H](C)C(=O)N2C1 (stereo partly drawn) [Compound 313, (S)-2-(3-(4-chloro-2-fluorophenyl)ureido)-3-(3,5-difluorophenyl)-N-((2R,6S,9R,11aS,17S,18S,20aS)-9-((R)-1-hydroxyethyl)-2,6,10,18-tetramethyl-5,8,11,16,20-pentaoxohexadecahydro-1H,5H,16H-dipyrrolo[2,1-c:2′,1′-l][1]oxa[4,7,10,13]tetraazacyclohexadecin-17-yl)propanamide] ({NH(4-Cl-2-F-phenyl)-CO}-[Phe(3,5-F2)][aThr]P[ξNMeThr]A[Pro(4R-Me)]; ester 2-C) | 340 ± 10 nM | –
Cc1ccc(NC(=O)N[C@@H](Cc2cc(F)cc(F)c2)C(=O)N[C@H]2COC(=O)[C@@H]3C[C@@H](C)CN3C(=O)[C@H](C)NC(=O)C3CCCCN3C(=O)[C@@H]3C[C@@H](O)CN3C2=O)cc1 (stereo partly drawn) [Compound 323, (S)-3-(3,5-difluorophenyl)-N-((2R,6S,8aR,14aS,16R,20S,23aS)-16-hydroxy-2,6-dimethyl-5,8,14,19,23-pentaoxooctadecahydro-1H,5H,14H,19H-pyrido[2,1-i]dipyrrolo[2,1-c:2′,1′-l][1]oxa[4,7,10,13]tetraazacyclohexadecin-20-yl)-2-(3-(p-tolyl)ureido)propanamide] | – | 670 ± 20 nM
C[C@H]1C[C@H]2C(=O)O[C@@H](C)[C@H](NC(=O)[C@H](Cc3cc(F)cc(F)c3)NC(=O)Nc3ccc(OC(F)(F)F)cc3)C(=O)N3CCC[C@H]3C(=O)N(C)[C@@H]([C@H](C)O)C(=O)N[C@@H](C)C(=O)N2C1 [Compound 203, (S)-3-(3,5-difluorophenyl)-N-((2S,6S,9S,11aS,17S,18S,20aS)-9-((S)-1-hydroxyethyl)-2,6,10,18-tetramethyl-5,8,11,16,20-pentaoxohexadecahydro-1H,5H,16H-dipyrrolo[2,1-c:2′,1′-l][1]oxa[4,7,10,13]tetraazacyclohexadecin-17-yl)-2-(3-(4-(trifluoromethoxy)phenyl)ureido)propanamide] ({NH(4-OCF3-phenyl)-CO}-[Phe(3,5-F2)][aThr]P[NMeaThr]A[Pro(4S-Me)]; ester 2-C) | – | 430 ± 10 nM
Cc1ccc(NC(=O)N[C@@H](Cc2ccccc2)C(=O)N[C@H]2COC(=O)[C@@H]3C[C@@H](C)CN3C(=O)[C@H](C)NC(=O)[C@@H]3CCCCN3C(=O)[C@@H]3CCCN3C2=O)cc1C [Compound 206, (S)—N-((2R,6S,8aS,14aS,20S,23aS)-2,6-dimethyl-5,8,14,19,23-pentaoxooctadecahydro-1H,5H,14H,19H-pyrido[2,1-i]dipyrrolo[2,1-c:2′,1′-l][1]oxa[4,7,10,13]tetraazacyclohexadecin-20-yl)-2-(3-(3,4-dimethylphenyl)ureido)-3-phenylpropanamide] | – | 1600 ± 300 nM
C[C@@H]1C[C@H]2C(=O)O[C@@H](C)[C@H](NC(=O)[C@H](Cc3cc(F)cc(F)c3)NC(=O)Nc3ccc4c(c3)CCO4)C(=O)N3CCC[C@H]3C(=O)N3CCCC[C@H]3C(=O)N[C@@H](C)C(=O)N2C1 [Compound 305, (S)-3-(3,5-difluorophenyl)-2-(3-(2,3-dihydrobenzofuran-5-yl)ureido)-N-((2R,6S,8aS,14aS,20S,21S,23aS)-2,6,21-trimethyl-5,8,14,19,23-pentaoxooctadecahydro-1H,5H,14H,19H-pyrido[2,1-i]dipyrrolo[2,1-c:2′,1′-l][1]oxa[4,7,10,13]tetraazacyclo-hexadecin-20-yl)propanamide] ({X8-CO}-[Phe(3,5-F2)][aThr]P[Pip]A[Pro(4R-Me)]; ester 2-C) | – | 480 ± 20 nM
